Where two headings read alike, the source gives them in different places.
Tests used:
mice = test: Acute toxicity test using mice (intravenous injection); format: in vivo; conditions: 100 mg/kg
Gastric Motor of Dogs = test: Effect (GMS activity) on gastric motor of dogs (strain gauge force transducer, gastric antrum, i.v.); format: in vivo, dogs (Beagles); conditions: for ED200: dogs; for GMS activity compared with starting compound: compared with the respective starting compounds (1) and (2); for gastrointestinal motor promoting effect: in vivo test of dogs, in words
Text: Effect (GMS activity) on Gastric Motor of Dogs was studied.
Beagles having a body weigh of about 10 kg were subjected to laparotomy under pentobarbital anesthesia, and a strain gauge force transducer was attached to the gastric antrum of each of the beagles. The beagles were used for the experiment more than 2 weeks after the operation. A lead wire of the strain gauge force transducer was connected to a recorder through an amplifier and the recorder records gastric contractions. Signals from the amplifier were supplied to a signal processor (NEC Sanei).
Each of the test compounds was dissolved in ethanol, and lactobionic acid (1 mg/mg of test compound) was added thereto, followed by dilution with physiological saline. The resulting solution was intravenously given 15 minutes after termination of the natural interdigestive migrating contractions.
The area of gastric contractions induced by administration of the test compounds was measured by use of the signal processor. Taking the area at the time that the maximum contraction of the interdigestive migrating contractions was kept for 1 minute as 100%, the dosage inducing a contraction area of 200% (ED200 value) was determined from dosage action curves.
The action (GMS activity) of the above-mentioned compounds on the gastric motor of the dogs was measured.
The measurement was carried out in a manner similar to that of Experimental Example 1.

[1] = tested on: gastrointestinal peristaltic movement; conditions: literature; cited from earlier work
[2] = Metabolite formation and distribution in dogs after i.v. lactobionate of compound (1); format: in vivo; conditions: dog, lactobionate of compound (1) 10 mg/kg, iv
Method: (§1) Namely, the present inventors found an active metabolite in vivo which promoted the gastrointestinal motor function (had GMS activity), when compound (1) or (2) of 14-membered ring macrolides having the structural formula shown in Table 1 below were given to the animals. Compound (1) was intravenously given to the dogs, followed by solvent extraction from the livers 30 minutes after administration, chromatography and preparative HPLC to 15 obtain two active metabolites, compounds (3) and (4). The present inventors were able to determine that the chemical structures of these compounds were 15- and 14-hydroxyl derivatives of compound (1), respectively. Compound (2) was treated similarly to obtain corresponding compounds (7) and (8).
The lactobionate of the compound (1) (10 mg/kg, iv) was injected into the fore-limb of the dog, and the blood, the liver, the bile and the urine were subjected to HP-20 chromatography. After extraction with ethyl acetate, active metabolites were determined. […] The liver was collected 30 minutes after administration, and an extracted concentrated solution thereof was subjected to HP-20 chromatography. The 80% v/v methanol/0.005N HCl fraction was extracted with ethyl acetate, and then, the extract was concentrated to obtain a powder. […]

[3] = Physicochemical nature (basicity, fat solubility)
gastrointestinal motor = test: GMS activity of metabolites isolated from dogs; format: in vivo; conditions: metabolites after compound (1), dog 10 mg/kg iv
Method: as §1
First, the present inventors examined whether or not metabolites promoting the gastrointestinal motor (having GMS activity) were formed in vivo when the compound (1) or (2), the 6,9-hemiacetal-erythromycin derivative known in the art, was given to the animal.
The lactobionate of the compound (1) (10 mg/kg, iv) was injected into the fore-limb of the dog, and the blood, the liver, the bile and the urine were subjected to HP-20 chromatography. After extraction with ethyl acetate, active metabolites were determined. […] The liver was collected 30 minutes after administration, and an extracted concentrated solution thereof was subjected to HP-20 chromatography. […]

[4] = Canis lupus familiaris, iv, Table 3, dose inducing contraction area of 200%, i.v., as lactobionic acid solution, read-out: ED200
[5] = Canis lupus familiaris, iv, Table 4, Experimental Example 2, similar to Experimental Example 1, read-out: ED200

| SMILES | ED200 (Gastric Motor of Dogs; [4]) [µg/kg] | GMS activity compared with starting compound (Gastric Motor of Dogs) | basicity and fat solubility [3] | gastrointestinal motor promoting effect (Gastric Motor of Dogs) | other results |
| --- | --- | --- | --- | --- | --- |
| CCN(C)[C@H]1C[C@@H](C)O[C@@H](O[C@@H]2[C@@H](C)[C@H](O[C@H]3C[C@@](C)(OC)[C@@H](O)[C@H](C)O3)[C@@H](C)C(=O)O[C@H](C(C)O)[C@@](C)(O)[C@H](O)[C@@H](C)C3=C(C)C[C@@]2(C)O3)[C@@H]1O (stereo partly shown) [lactobionate of the compound (8)] |  |  |  |  | death in acute toxicity test (mice): no case of death was observed |
| CC[C@H]1OC(=O)[C@H](C)[C@@H](O[C@H]2C[C@@](C)(OC)[C@@H](O)[C@H](C)O2)[C@H](C)[C@@H](O[C@@H]2O[C@H](C)C[C@H](N(C)CC)[C@H]2O)[C@@]2(C)CC(C)=C(O2)[C@H](C)[C@@H](O)[C@]1(C)O [Compound (2), reference compound] | 8 |  |  |  |  |
| CC[C@H]1OC(=O)[C@H](C)[C@@H](O[C@H]2C[C@@](C)(OC)[C@@H](O)[C@H](C)O2)[C@H](C)[C@@H](O[C@@H]2O[C@H](C)C[C@H](N(C)C)[C@H]2O)[C@](C)(O)C[C@@H](C)C(=O)[C@H](C)[C@@H](O)[C@]1(C)O [ERM A, erythromycin A] |  |  |  |  | motilin-like action / GMS activity [1]: motilin-like action promoting the gastrointestinal peristaltic movement |
| CC[C@H]1OC(=O)[C@H](C)[C@@H](O[C@H]2C[C@@](C)(OC)[C@@H](O)[C@H](C)O2)[C@H](C)[C@@H](O[C@@H]2O[C@H](C)C[C@H](N(C)C(C)C)[C@H]2O)[C@@]2(C)CC(C)=C(O2)[C@H](C)[C@@H](O)[C@]1(C)O [Compound (1), reference compound] | 0.9 |  |  |  | presence in blood, liver, bile and urine [2]: largely present in the blood; ED200 (Gastric Motor of Dogs; Table 4, Experimental Example 2, similar to Experimental Example 1): 0.9 µg/kg |
| CC[C@H]1OC(=O)[C@H](C)[C@@H](O[C@H]2C[C@@](C)(O)[C@@H](O)[C@H](C)O2)[C@H](C)[C@@H](O[C@@H]2O[C@H](C)C[C@H](N(C)C(C)C)[C@H]2O)[C@@]2(C)CC(C)=C(O2)[C@H](C)[C@@H](O)[C@]1(C)O [Compound (6)] |  | stronger GMS activity than the starting compound (1) |  |  | ED200 (Gastric Motor of Dogs; [5]): 0.26 µg/kg |
| CCN(C)[C@H]1C[C@@H](C)O[C@@H](O[C@@H]2[C@@H](C)[C@H](O[C@H]3C[C@@](C)(OC)[C@@H](O)[C@H](C)O3)[C@@H](C)C(=O)O[C@H](C(C)O)[C@@](C)(O)[C@H](O)[C@@H](C)C3=C(C)C[C@@]2(C)O3)[C@@H]1O (stereo partly shown) [Compound (8), N-demethyl-14-hydroxy-N-ethyl-8,9-anhydroerythromycin A 6,9-hemiacetal] | 1.8 | stronger GMS activity than the respective starting compounds | basic fat-soluble properties | strong gastrointestinal motor promoting effect |  |
| CO[C@]1(C)C[C@H](O[C@H]2[C@H](C)[C@@H](O[C@@H]3O[C@H](C)C[C@H](N(C)C(C)C)[C@H]3O)[C@@]3(C)CC(C)=C(O3)[C@H](C)[C@@H](O)[C@](C)(O)[C@@H](CCO)OC(=O)[C@@H]2C)O[C@@H](C)[C@@H]1O [Compound (3), N-demethyl-15-hydroxy-N-isopropyl-8,9-anhydroerythromycin A 6,9-hemiacetal] | 0.5 | stronger GMS activity than the respective starting compounds | basic fat-soluble properties | strong gastrointestinal motor promoting effect | GMS activity of metabolites / fractions (gastrointestinal motor): active |
| CO[C@]1(C)C[C@H](O[C@H]2[C@H](C)[C@@H](O[C@@H]3O[C@H](C)C[C@H](N(C)C(C)C)[C@H]3O)[C@@]3(C)CC(C)=C(O3)[C@H](C)[C@@H](O)[C@](C)(O)[C@@H](C(C)O)OC(=O)[C@@H]2C)O[C@@H](C)[C@@H]1O (stereo partly shown) [Compound (4), N-demethyl-14-hydroxy-N-isopropyl-8,9-anhydorerythromycin A 6,9-hemiacetal] | 0.4 | stronger GMS activity than the respective starting compounds | basic fat-soluble properties | strong gastrointestinal motor promoting effect | GMS activity of metabolites / fractions (gastrointestinal motor): active |
| CCN(C)[C@H]1C[C@@H](C)O[C@@H](O[C@@H]2[C@@H](C)[C@H](O[C@H]3C[C@@](C)(OC)[C@@H](O)[C@H](C)O3)[C@@H](C)C(=O)O[C@H](CCO)[C@@](C)(O)[C@H](O)[C@@H](C)C3=C(C)C[C@@]2(C)O3)[C@@H]1O [Compound (7), N-demethyl-15-hydroxy-N-ethyl-8,9-anhydroerythromycin A 6,9-hemiacetal] | 3.2 | stronger GMS activity than the respective starting compounds | basic fat-soluble properties | strong gastrointestinal motor promoting effect |  |
| CC1=C2O[C@](C)(C1)[C@H](O[C@@H]1O[C@H](C)C[C@H](N(C)C(C)C)[C@H]1O)[C@@H](C)[C@H](O[C@H]1C[C@@](C)(O)[C@@H](O)[C@H](C)O1)[C@@H](C)C(=O)O[C@H](C(C)O)[C@@](C)(O)[C@H](O)[C@H]2C (stereo partly shown) [Compound (5), 3'-O-demethyl-N-demethyl-14-hydroxy-N-isopropyl-8,9-anhydroerythromycin A 6,9-hemiacetal] |  | stronger GMS activity than the starting compound (1) |  |  | ED200 (Gastric Motor of Dogs; [5]): 0.21 µg/kg |

Source: US5854407A, “15-hydroxy 6,9-hemiacetal erythromycin compounds” (Takeda Chemical Corporation, priority 1992, dated 1998)
